In experiment [1] the target is T1, PI3Kδ (Homo sapiens, UniProt O00329). The experiment is described as follows: PI3K HTRF assay, PI3K-delta. Note: 80 µM ATP. It counts as biochemical. To be noted: read-out: pIC50 PI3Kδ (converted). As to the method:
(§1) The binding of compounds to PI3K-alpha/beta/delta/gamma is determined by homogeneous time resolved fluorescence (HTRF) assays as follows;
(§2) Briefly, solid compound is dissolved in 100% DMSO at a concentration of 2 mM. Dilutions are prepared in 100% DMSO using a 1 in 4 serial step dilution. The dilutions are transferred to black low volume Greiner assay plates ensuring that the DMSO concentration is constant across the plate at 1% (0.1 μL/well).
(§3) PI3K Reaction Buffer (contains 50 mM HEPES pH 7.0 (NaOH), 150 mM NaCl, 10 mM MgCl2, 2.3 mM sodium cholate, […] CHAPS made up in milliQ water). Fresh DTT is added at a final concentration of 1 mM on the day of use.
(§4) Enzyme solutions: 1× PI3K Assay Buffer containing: • 550 pM PI3K-Alpha enzyme (275 pM final assay concentration) • 800 pM PI3K-Beta enzyme (400 pM final assay concentration) • 3 nM PI3K-Delta enzyme (1.5 nM final assay concentration) • 10 nM PI3K-Gamma enzyme (5 nM final assay concentration)
(§5) These concentrations are optimal to achieve a signal:background of between 1.5-4.5. The enzyme solution is added to columns 1-24 (3 μL/well) and plates are incubated for 15 minutes at room temperature.
(§6) Substrate solution: 1× PI3K Assay Buffer containing: • PI3K-Alpha: 500 μM ATP, 20 μM PIP2 and 120 nM biotin-PIP3.
(§7) This is added to all wells and plates are incubated for 1 hour at room temperature.
(§8) Detection solution: PI3K Detection Buffer (contains 50 mM HEPES pH 7.0 (HCl), 150 mM NaCl, 2.3 mM sodium cholate, 10 μM CHAPS, 240 mM potassium fluoride) containing 2 mM DTT (2× final assay concentration), 90 nM GRP-1 PH domain, 300 nM Streptavidin-APC and 24 nM Europium-anti-GST (6× final assay concentrations).
(§9) This is mixed left at room temperature (protected from light).
(§10) STOP solution: PI3K STOP Buffer (contains 50 mM HEPES pH 7.0 (HCl), 150 mM NaCl, 2.3 mM sodium cholate, 10 μM CHAPS, 150 mM EDTA).
(§11) Detection solution is diluted 1:1 with STOP solution and added to all wells (3 μL/well). Plates are covered and incubated on the bench for 45-60 minutes.
(§12) Plates are read on a PerkinElmer Envision, measuring TR-FRET between the complex formed between the GST-tagged PH domain and biotinylated PIP3 which both recruit fluorophores (Europium-labelled anti-GST & Strep-APC respectively). In the […] of an inhibitor, this complex is disrupted by the competitive action of non-biotinylated PIP3 (formed in the assay by the phosphorylation of PIP2 by the kinase & ATP). From this, the ratio of acceptor/donor was calculated (λex=317 nm, Δem donor=615 nm, Δem acceptor=665 nm) and used for data analysis.
On the technique in general: Time-resolved FRET reads energy transfer from a long-lived donor to a nearby acceptor.

For a further experiment, the target named is PI3Kγ (Homo sapiens, UniProt P48736). Briefly: PI3K HTRF assay, PI3K-gamma. Note: 15 µM ATP. The experiment is classed as biochemical. Conditions: read-out: pIC50 PI3Kγ (converted). As to the method:
as §1, §2, §3, §4, §5, §6, §7, §8, §9, §10, §11, §12

For a further experiment, the target named is PI3Kα (Homo sapiens, UniProt P42336). The experiment is described as follows: PI3K HTRF assay, PI3K-alpha. Note: 250 µM ATP. It counts as biochemical. To be noted: read-out: pIC50 PI3Kα (converted). The method, then: as §1, §2, §3, §4, §5, §6, §7, §8, §9, §10, §11, §12
A further experiment has as its target PI3Kβ (Homo sapiens, UniProt P42338). The experiment is described as follows: PI3K HTRF assay, PI3K-beta. Note: 400 µM ATP. Conditions: read-out: pIC50 PI3Kβ (converted). It counts as biochemical. The method, then: as §1, §2, §3, §4, §5, §6, §7, §8, §9, §10, §11, §12
A further experiment concerns Class I PI3-kinases. Conditions: read-out: IC50 against each of the Class I PI3-kinases, cited from earlier work.
The target of experiment [2] is T1, PI3Kδ. The experiment is described as follows: PI3Kδ jump dilution experiment. It counts as biochemical. Conditions: 15 min incubation, 100-fold dilution, read for 30 minutes. As to the method: Irreversibility of the PI3Kδ-Inhibitor complex, and reversibility of the non-covalent controls, was determined by jump-dilution assay as follows:
PI3Kδ enzyme was made up to a 100× assay concentration (final assay concentration=6 nM) in buffer solution (contains 50 mM HEPES pH 7.0 (NaOH), 150 mM NaCl, 10 mM MgCl2, 2.3 mM sodium cholate, 10 μM CHAPS made up in milliQ water).
100× enzyme solution was added to compound wells (20 μL/well), and incubated for 15 mins, after which point the assay was diluted 100-fold with commercially available ADP QUEST substrate solution, available from DiscoverX (calatog number: 90-0071), (3200 μL DiscoverX Reagent A, 6400 μL DiscoverX Reagent B, 1 mM ATP and 40 μM PIP2). Production of fluorescence signal was then measured immediately using a Tecan Safire II plate reader at 30 second intervals for 30 minutes (λex=544 nm, λem=590 nm).

Experiment [3] relates to amphetamine-induced psychosis. To be noted: Law et al. 2012; cited from earlier work.
For the next experiment, the target named is CK2 protein kinase. To be noted: literature; cited from earlier work.
The target in experiment [4] is T1, PI3Kδ. Briefly: Protein mass spectrometry: covalent adduct assessment and competition experiment. Conditions: 10:1 inhibitor:protein, incubated overnight. The experiment is classed as binding. As to the method: Compounds were incubated with 1 μM protein in a 10:1 inhibitor:protein ratio in buffer containing 50 mM HEPES, pH 7.0 (NaOH), 150 mM NaCl, 10 mM MgCl2, 2.3 mM cholate, 10 μM CHAPS. After the desired time, the assays were quenched with a 10% formic acid solution, and analysed by LCMS using an Agilent 6224 TOF LC/MS equipped with Agilent 1200 Series autosampler. Analytes were separated on a Polymer Labs (Agilent) PLRP-S column (50 mm×1 mm internal diameter, 5 μm particle size). LC conditions were 0.5 mL·min^−1 flow rate, 70° C., 10 μL injection volume. Gradient elution with (A) water containing 0.2% (v/v) formic acid and (B) acetonitrile containing 0.2% (v/v) formic acid. Gradient conditions were initially 10% B, increasing to 30% after 0.5 min, and then linearly to 80% B over 4.5 min, prior to a 1.2 min flush with 100% B and then a 1.9 minute equilibration with 10% B prior to the next injection. Mass spectra were then deconvoluted using Agilent MassHunter Qualitative Analysis version B.06.00 over the mass range 70-170 kDa to obtain the intact protein mass.
A potent reversible ATP competitive inhibitor was incubated with 1 μM protein in a 10:1 inhibitor:protein ratio in buffer containing 50 mM HEPES, pH 7.0 (NaOH), 150 mM NaCl, 10 mM MgCl2, 2.3 mM cholate, 10 μM CHAPS at room temperature. […] The assay was quenched at 5 min and analysed using the procedure detailed above.

Like-named read-outs stand apart in the source and are kept apart here. A value given as a limit tells only on which side of the number the result lay.

T1 sequence (O00329 whole entry): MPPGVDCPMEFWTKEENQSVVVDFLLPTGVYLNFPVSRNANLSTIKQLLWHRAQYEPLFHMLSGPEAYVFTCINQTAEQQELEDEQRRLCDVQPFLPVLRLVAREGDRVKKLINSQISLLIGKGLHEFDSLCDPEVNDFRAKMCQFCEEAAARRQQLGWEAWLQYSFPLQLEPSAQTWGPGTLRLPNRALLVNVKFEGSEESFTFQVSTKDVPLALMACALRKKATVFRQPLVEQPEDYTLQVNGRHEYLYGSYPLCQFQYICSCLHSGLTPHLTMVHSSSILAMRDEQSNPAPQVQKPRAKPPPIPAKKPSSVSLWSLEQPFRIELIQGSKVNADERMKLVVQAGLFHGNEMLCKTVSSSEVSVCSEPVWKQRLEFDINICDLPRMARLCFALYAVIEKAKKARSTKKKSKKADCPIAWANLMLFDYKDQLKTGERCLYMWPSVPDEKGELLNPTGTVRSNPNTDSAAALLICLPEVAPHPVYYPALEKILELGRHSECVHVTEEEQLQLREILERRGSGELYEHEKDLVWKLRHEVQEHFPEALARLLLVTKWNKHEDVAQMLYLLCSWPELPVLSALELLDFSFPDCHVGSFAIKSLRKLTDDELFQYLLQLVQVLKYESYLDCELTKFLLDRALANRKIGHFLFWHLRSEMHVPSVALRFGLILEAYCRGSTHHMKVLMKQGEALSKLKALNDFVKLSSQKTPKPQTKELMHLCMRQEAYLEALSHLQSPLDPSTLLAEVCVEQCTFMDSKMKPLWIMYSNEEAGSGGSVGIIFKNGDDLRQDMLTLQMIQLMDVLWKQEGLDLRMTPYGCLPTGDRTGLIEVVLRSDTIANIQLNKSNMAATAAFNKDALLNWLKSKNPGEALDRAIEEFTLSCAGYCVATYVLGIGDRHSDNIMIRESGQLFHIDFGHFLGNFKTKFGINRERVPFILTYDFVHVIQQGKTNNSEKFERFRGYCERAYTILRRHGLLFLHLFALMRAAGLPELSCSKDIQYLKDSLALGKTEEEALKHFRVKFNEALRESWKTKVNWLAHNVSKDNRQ
T1 sequence (P27986 whole entry partner): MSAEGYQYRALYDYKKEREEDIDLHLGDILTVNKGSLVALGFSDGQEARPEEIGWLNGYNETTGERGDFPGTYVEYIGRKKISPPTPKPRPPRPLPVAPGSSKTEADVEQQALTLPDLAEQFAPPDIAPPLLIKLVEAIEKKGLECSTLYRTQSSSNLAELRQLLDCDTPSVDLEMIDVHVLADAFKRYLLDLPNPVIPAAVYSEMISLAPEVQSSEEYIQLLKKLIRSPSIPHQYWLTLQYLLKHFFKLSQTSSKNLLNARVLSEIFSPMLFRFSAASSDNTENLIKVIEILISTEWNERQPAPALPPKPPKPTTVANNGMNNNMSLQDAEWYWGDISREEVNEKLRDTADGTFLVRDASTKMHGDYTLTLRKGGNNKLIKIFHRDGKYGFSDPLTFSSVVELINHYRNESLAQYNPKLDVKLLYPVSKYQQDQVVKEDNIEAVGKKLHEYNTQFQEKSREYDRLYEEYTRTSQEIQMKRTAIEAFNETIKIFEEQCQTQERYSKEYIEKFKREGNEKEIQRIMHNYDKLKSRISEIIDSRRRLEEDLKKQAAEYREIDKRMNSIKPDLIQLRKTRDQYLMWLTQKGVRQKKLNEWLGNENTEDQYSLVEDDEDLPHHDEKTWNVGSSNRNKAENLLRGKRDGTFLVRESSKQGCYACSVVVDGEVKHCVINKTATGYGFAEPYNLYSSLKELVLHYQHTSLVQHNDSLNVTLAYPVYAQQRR
Chain of PI3Kβ (P42338 whole entry, species assumed): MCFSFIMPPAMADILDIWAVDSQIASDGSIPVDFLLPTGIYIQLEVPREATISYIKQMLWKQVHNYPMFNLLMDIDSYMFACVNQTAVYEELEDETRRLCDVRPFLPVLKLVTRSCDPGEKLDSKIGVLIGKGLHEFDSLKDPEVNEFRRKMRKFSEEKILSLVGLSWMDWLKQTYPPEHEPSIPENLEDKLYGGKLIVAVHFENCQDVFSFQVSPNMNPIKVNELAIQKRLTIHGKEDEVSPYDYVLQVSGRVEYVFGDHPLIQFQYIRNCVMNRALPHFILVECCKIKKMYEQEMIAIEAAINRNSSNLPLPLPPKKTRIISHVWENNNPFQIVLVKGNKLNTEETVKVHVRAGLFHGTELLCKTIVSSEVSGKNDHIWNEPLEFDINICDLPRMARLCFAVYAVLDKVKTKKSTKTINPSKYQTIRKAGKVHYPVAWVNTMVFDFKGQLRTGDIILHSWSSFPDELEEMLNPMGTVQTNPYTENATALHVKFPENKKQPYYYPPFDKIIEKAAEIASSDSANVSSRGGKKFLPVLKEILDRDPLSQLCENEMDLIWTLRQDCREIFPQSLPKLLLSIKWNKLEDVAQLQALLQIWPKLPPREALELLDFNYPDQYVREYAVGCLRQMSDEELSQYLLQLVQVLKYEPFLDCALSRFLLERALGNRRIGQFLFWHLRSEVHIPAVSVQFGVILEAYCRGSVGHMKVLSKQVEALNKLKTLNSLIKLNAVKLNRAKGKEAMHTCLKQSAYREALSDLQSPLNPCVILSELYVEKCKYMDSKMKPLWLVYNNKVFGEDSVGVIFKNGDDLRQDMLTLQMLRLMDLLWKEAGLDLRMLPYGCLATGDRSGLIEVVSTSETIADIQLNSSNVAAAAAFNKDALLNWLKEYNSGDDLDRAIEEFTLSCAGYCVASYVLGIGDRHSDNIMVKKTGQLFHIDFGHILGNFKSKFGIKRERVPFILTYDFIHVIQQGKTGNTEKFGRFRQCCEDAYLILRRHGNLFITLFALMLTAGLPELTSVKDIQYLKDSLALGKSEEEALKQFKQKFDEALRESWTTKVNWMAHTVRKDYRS
Chain of PI3Kβ (P27986 whole entry partner, species assumed): as the sequence (P27986 whole entry partner) above
Chain of PI3Kγ (P48736 whole entry, species assumed): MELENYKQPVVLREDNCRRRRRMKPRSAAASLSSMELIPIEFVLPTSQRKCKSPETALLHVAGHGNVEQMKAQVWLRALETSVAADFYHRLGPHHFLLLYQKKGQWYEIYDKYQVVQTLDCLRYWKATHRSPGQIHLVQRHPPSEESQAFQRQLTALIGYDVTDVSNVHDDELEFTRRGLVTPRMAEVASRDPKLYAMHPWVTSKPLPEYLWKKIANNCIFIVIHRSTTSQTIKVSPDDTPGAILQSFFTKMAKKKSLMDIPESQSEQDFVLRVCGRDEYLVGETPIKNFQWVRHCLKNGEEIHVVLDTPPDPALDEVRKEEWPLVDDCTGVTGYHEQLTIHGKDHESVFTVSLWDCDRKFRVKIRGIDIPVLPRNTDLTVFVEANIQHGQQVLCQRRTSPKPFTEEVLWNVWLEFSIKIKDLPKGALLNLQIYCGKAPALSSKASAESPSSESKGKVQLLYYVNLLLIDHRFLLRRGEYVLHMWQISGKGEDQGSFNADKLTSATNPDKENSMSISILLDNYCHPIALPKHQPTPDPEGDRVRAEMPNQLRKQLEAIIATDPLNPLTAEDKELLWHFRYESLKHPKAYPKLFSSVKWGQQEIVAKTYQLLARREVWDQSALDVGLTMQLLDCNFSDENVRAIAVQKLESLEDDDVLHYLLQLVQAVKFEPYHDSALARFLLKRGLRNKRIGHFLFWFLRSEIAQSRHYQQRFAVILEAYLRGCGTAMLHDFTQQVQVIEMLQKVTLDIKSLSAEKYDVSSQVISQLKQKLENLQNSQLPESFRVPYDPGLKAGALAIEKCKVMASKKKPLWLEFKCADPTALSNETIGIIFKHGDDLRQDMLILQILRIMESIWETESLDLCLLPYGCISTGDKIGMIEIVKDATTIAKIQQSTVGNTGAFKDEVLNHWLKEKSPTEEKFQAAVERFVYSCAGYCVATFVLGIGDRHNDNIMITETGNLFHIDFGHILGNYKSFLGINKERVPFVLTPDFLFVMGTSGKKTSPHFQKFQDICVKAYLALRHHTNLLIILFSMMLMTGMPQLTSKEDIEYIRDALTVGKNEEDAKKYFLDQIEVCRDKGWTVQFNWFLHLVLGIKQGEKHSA
Chain of PI3Kα (P42336 whole entry, species assumed): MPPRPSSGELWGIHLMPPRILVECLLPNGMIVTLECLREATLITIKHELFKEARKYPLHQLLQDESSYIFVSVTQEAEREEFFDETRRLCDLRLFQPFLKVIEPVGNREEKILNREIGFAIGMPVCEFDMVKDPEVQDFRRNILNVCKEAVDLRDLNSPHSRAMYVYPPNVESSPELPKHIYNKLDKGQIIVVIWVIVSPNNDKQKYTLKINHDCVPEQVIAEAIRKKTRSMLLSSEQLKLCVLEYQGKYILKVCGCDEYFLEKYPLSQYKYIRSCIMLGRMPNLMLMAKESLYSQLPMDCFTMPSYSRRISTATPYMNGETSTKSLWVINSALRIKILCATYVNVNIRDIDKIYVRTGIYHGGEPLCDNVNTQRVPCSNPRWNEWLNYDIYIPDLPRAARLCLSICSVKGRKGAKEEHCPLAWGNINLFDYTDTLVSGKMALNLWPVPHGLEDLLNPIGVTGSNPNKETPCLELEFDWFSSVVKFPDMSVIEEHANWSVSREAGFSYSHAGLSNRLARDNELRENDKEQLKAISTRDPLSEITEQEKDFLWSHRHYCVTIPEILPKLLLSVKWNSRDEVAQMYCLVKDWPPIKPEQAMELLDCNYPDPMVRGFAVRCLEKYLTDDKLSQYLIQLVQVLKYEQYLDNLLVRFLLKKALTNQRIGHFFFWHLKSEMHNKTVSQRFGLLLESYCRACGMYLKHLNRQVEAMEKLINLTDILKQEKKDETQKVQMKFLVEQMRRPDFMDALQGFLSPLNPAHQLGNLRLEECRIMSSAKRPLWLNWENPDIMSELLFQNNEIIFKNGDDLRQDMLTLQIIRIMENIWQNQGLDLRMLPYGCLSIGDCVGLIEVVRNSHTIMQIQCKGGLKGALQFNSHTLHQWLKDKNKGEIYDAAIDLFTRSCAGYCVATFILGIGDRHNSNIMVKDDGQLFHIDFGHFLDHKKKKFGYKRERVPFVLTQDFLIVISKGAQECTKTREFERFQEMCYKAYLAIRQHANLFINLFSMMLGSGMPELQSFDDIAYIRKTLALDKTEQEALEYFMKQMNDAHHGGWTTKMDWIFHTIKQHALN
Chain of PI3Kα (P27986 whole entry partner, species assumed): as the sequence (P27986 whole entry partner) above

As to `COc1ccc(OC(=O)c2cc(-c3cc(-c4ncc(CN5CCN(C(C)C)CC5)o4)c4cn[nH]c4c3)cnc2OC)cc1` [Example 10, 4-Methoxyphenyl 5-(4-(5-((4-isopropylpiperazin-1-yl)methyl)oxazol-2-yl)-1H-indazol-6-yl)-2-methoxynicotinate], the IC50 on PI3Kδ [1] was 0.0501 µM; on PI3Kγ it was 10 µM; on PI3Kα it was 15.8 µM; at PI3Kβ, 12.6 µM.

Regarding `COc1ncc(-c2cc(-c3ncc(CN4CCN(C(C)C)CC4)o3)c3cn[nH]c3c2)cc1C(=O)Oc1ccccc1[N+](=O)[O-]` [Example 3, 2-Nitrophenyl 5-(4-(5-((4-isopropylpiperazin-1-yl)methyl)oxazol-2-yl)-1H-indazol-6-yl)-2-methoxynicotinate], the IC50 at PI3Kδ [1] was 0.00501 µM; at PI3Kγ it was 3.16 µM; at PI3Kα, 0.0794 µM; at PI3Kβ it was 0.2 µM.

On to `COc1ncc(-c2cc(-c3ncc(CN4CCN(C(C)C)CC4)o3)c3cn[nH]c3c2)cc1C(=O)Oc1ccc(C(F)(F)F)cc1` [Example 6, 4-(Trifluoromethyl)phenyl 5-(4-(5-((4-isopropylpiperazin-1-yl)methyl)oxazol-2-yl)-1H-indazol-6-yl)-2-methoxynicotinate], for which the IC50 on PI3Kδ [1] is 0.00398 µM; on PI3Kγ, 25.1 µM; at PI3Kα, 2 µM; on PI3Kβ it was 6.31 µM.

Take `COc1ncc(-c2cc(-c3ncc(CN4CCN(C(C)C)CC4)o3)c3cn[nH]c3c2)cc1C(=O)OCC(F)(F)F` [Example 11, 2,2,2-Trifluoroethyl 5-(4-(5-((4-isopropylpiperazin-1-yl)methyl)oxazol-2-yl)-1H-indazol-6-yl)-2-methoxynicotinate]: the IC50 on PI3Kδ [1] was 0.316 µM; at PI3Kγ it was 20 µM; at PI3Kα it was 15.8 µM; at PI3Kβ it was greater than 31.6 µM.

For the molecule `COc1ncc(-c2cc(-c3ncc(CN4CCN(C(C)C)CC4)o3)c3cn[nH]c3c2)cc1C(=O)Oc1ccc(C)cc1C` [Example 9, 2,4-Dimethylphenyl 5-(4-(5-((4-isopropylpiperazin-1-yl)methyl)oxazol-2-yl)-1H-indazol-6-yl)-2-methoxynicotinate], the IC50 on PI3Kδ [1] was 0.398 µM; at PI3Kγ it was 10 µM; at PI3Kα, 7.94 µM; at PI3Kβ, 15.8 µM.

`COC[C@H]1OC(=O)c2coc3c2[C@@]1(C)C1=C(C3=O)[C@@H]2CCC(=O)[C@@]2(C)C[C@H]1OC(C)=O` [Wortmannin]: the IC50 in the experiment with Class I PI3-kinases (literature) was 0.001 to 0.01 µM.

On to `COC(=O)c1cc(-c2cc(-c3ncc(CN4CCN(C(C)C)CC4)o3)c3cn[nH]c3c2)cnc1OC.O=CO` [Example 1, Methyl 5-(4-(5-((4-isopropylpiperazin-1-yl)methyl)oxazol-2-yl)-1H-indazol-6-yl)-2-methoxynicotinate], for which the IC50 was 0.0398 µM at PI3Kδ [1], greater than 31.6 µM at PI3Kγ, 10 µM at PI3Kα and greater than 31.6 µM at PI3Kβ. In addition, on PI3Kδ [2], the “Recovery of enzyme activity after jump dilution” value is “Recovery of enzyme activity was observed”.

Take `Cc1ccccc1-n1c(Cn2cnc3c(N)ncnc32)nc2cccc(C)c2c1=O` [IC87114]: the “Efficacy in mouse model of amphetamine-induced psychosis” value in experiment [3] was “remarkable efficacy”.

`O=c1cc(N2CCOCC2)oc2c(-c3ccccc3)cccc12` [LY294002]: the IC50 was 15 to 20 µM in the experiment on Class I PI3-kinases (Fruman et al. 1998) and 5 to 10 µM at CK2 protein kinase.

As to `COc1ncc(-c2cc(-c3ncc(CN4CCN(C(C)C)CC4)o3)c3cn[nH]c3c2)cc1C(=O)Oc1ccc([N+](=O)[O-])cc1` [Example 4, 4-Nitrophenyl 5-(4-(5-((4-isopropylpiperazin-1-yl)methyl)oxazol-2-yl)-1H-indazol-6-yl)-2-methoxynicotinate], the IC50 was 0.000631 µM at PI3Kδ [1], 1.58 µM at PI3Kγ, 0.00631 µM on PI3Kα and 0.0631 µM on PI3Kβ.

In the case of `COc1ncc(-c2cc(-c3ncc(CN4CCN(C(C)C)CC4)o3)c3cn[nH]c3c2)cc1C(=O)Oc1ccccc1C(F)(F)F` [Example 5, 2-(Trifluoromethyl)phenyl 5-(4-(5-((4-isopropylpiperazin-1-yl)methyl)oxazol-2-yl)-1H-indazol-6-yl)-2-methoxynicotinate], the IC50 was 0.00631 µM on PI3Kδ [1], 7.94 µM on PI3Kγ, 1 µM at PI3Kα and 2 µM on PI3Kβ.

In the case of `COc1ncc(-c2cc(-c3ncc(CN4CCN(C(C)C)CC4)o3)c3cn[nH]c3c2)cc1C(=O)Oc1ccccc1` [Example 8, Phenyl 5-(4-(5-((4-isopropylpiperazin-1-yl)methyl)oxazol-2-yl)-1H-indazol-6-yl)-2-methoxynicotinate], the IC50 on PI3Kδ [1] was 0.00631 µM; at PI3Kγ it was 12.6 µM; at PI3Kα, 2.51 µM; at PI3Kβ, 3.98 µM.

Regarding `COc1ncc(-c2cc(-c3ncc(CN4CCN(C(C)C)CC4)o3)c3cn[nH]c3c2)cc1C(=O)O` [Example 2, 5-(4-(5-((4-Isopropylpiperazin-1-yl)methyl)oxazol-2-yl)-1H-indazol-6-yl)-2-methoxynicotinic acid], the IC50 at PI3Kδ [1] is 0.0126 µM; at PI3Kγ it was 15.8 µM; at PI3Kα, 12.6 µM; on PI3Kβ it was 20 µM. At PI3Kδ [2], the “Recovery of enzyme activity after jump dilution” value is reported as “Recovery of enzyme activity was observed”. Further, the “Covalent modification of PI3Kδ (protein mass spectrometry)” value at PI3Kδ [4] is “no modification”.

These data come from patent US20190161480A1, “Chemical Compounds” (GLAXOSMITHKLINE INTELLECTUAL PROPERTY DEVELOPMENT LIMITED, priority 2016, published 2019).
